Test results taken from patent US7476649B2, “Antiproliferative and antiviral proteins and peptides” (priority 1998, dated 2009).
≈ marks a conversion by molar mass, not a printed value. Read-outs that look alike come from different tables or passages of the source.

Experiments:
[1] = system: African green monkey cells (CV-1)
[2] = system: African green monkey cells (CV-1); remark: listed apart in the source
[3] = system: type 1 herpes (HSV-1), strain McKrae; assay type: cell-based, Herpes Simplex Type I
[4] = system: type 1 herpes (HSV-1), strain McKrae; assay type: cell-based, Herpes Simplex Type I; remark: listed apart in the source
[5] = system: human embryonic lung cell line MRC-5
[6] = system: San Angelo (SAV); assay type: cell-based, San Angelo virus
[7] = system: San Angelo (SAV); assay: microbe, parasite or virus in culture; assay type: cell-based, San Angelo virus
[8] = in vitro; conditions: African green monkey
[9] = in vitro; conditions: African green monkey; remark: listed apart in the source
[10] = in vitro; conditions: African green monkey; remark: listed apart in the source
[11] = in vitro; conditions: African green monkey; remark: listed apart in the source

For `Nc1ccn(C[C@@H](CO)OCP(=O)(O)O)c(=O)n1` [HPMPC, cidofovir], the CC50 [1] was over 100 µg/mL and the CC50 [2] was over 100 µg/mL.

For `Nc1nc2c(ncn2COCCO)c(=O)[nH]1` [Acyclovir, acyclovir], the “COMMENT (activity)” value [3] was “Excellent activity”, the “COMMENT (activity)” value [4] was “Excellent activity” and the CC50 [5] was over 100 µg/mL.

For `NC(=O)c1ncn([C@@H]2O[C@H](CO)[C@@H](O)[C@H]2O)n1` [Ribavirin, ribavirin], the “COMMENT (activity)” value [6] was “Very good activity”, the “COMMENT (activity)” value [7] was “Very good activity” and the EC50 ([7]; San Angelo virus, Vero) was 30 µg/mL (≈ 123 µM). It also gave a CC50 [8] of over 100 µg/mL, a CC50 [9] of over 100 µg/mL and a CC50 [10] of over 100 µg/mL. The CC50 [11] was over 100 µg/mL.
